Assay results from patent publication US7795244B2, “Penem prodrugs” (priority 2006, dated 2010).
In brackets after ≈: the same amount, converted by molar mass. Several values for one entry are separate records, joined by “and”; a condition that tells them apart may be missing. Identical values can stand only once. Like-named read-outs stand apart in the source and are kept apart here. Values belong to the compound of their own block, whether it stands above or below them.

Assays:
[1] = Stability in the presence of porcine pancrelipase (PPE); format: in vitro ADME; details: pig, porcine pancrelipase (ku-zyme HP) in phosphate buffer, 50 μM substrate, pH 7.4, 37° C.
[2] = human, pH 7.4
[3] = by comparison to intravenous AUCs (Table 4, Foulds et al.), cited from earlier work
[4] = Stability in human intestinal juice (HIJ); details: pooled human intestinal juice (4 subjects), buffered, pH 7.4
plasma carnitine = test: Acute model of carnitine depletion; format: in vivo; details: 200 mg/kg BID orally for 4 days, Sprague-Dawley rats, relative to vehicle control (FIG. 1)
Procedure: Of interest was a comparison between Compound 1 and […] in terms of the prodrug side chains' tendency or lack thereof to deplete plasma carnitine following metabolism of the intact prodrug. This was evaluated in vivo using an acute model of carnitine depletion in Sprague-Dawley rats. To understand the potential impact in vivo, radiolabeled pivalic acid (Compound B1 side chain) and 2-ethylbutyric acid (Compound 1 side chain) were administered orally at a dose of 200 mg/kg BID for 4 days to two separate groups of animals. […] Doses were administered in 100 mM sodium phosphate pH 6.6 at a dose volume of 10 mL/kg. Blood samples were obtained at 24 hour intervals following initiation of the study, processed for plasma and assayed for carnitine levels by LC/MS/MS. A vehicle control consisting of oral administration of an equal volume of buffer without compound was completed as a baseline comparison.

[5] = Pharmacokinetics of total radioactivity after single oral dose; format: in vivo, Sprague-Dawley Rats; details: single oral 200 mg/kg; rats
Procedure: A separate study using a single 200 mg/kg dose of each radiolabeled compound (pivalic acid and […]) was completed in rats to determine systemic exposure of dose following oral administration. The oral administration route was chosen because it is expected that the majority of hydrolysis of the prodrugs will occur within the intestine prior to entering systemic circulation. Plasma samples were obtained prior to dosing and at 0.25, 0.5, 1, 4, 8, and 24 hr post-dose. Samples were quantified for radioactivity by liquid scintillation counting and the counts were converted to […] equivalents/mL. As shown in Table 5 and FIG. 2, once absorbed, radioactivity associated with 2-ethylbutyric acid is cleared 4.5 fold faster than pivalic acid, reflecting efficient metabolic processing and excretion of the compound.

Equilibrium solubility = format: physicochemical; details: aqueous buffer, thermodynamic from solid, 25 mM phosphate buffer (pH 5), ambient temperature / 25° C.
Procedure: Vials containing excess prodrug in phosphate buffer were rotated for up to 48 hours. After the equilibrium period, samples were pulled, filtered through 0.45 μm Gelman Acrodisc Nylon syringe filter and analyzed for drug concentration using HPLC. The HPLC conditions were: Column. C18, SymmetryShield RP, Waters, 4.6×150 mm, 3.5 micron; Mobile phase A: Acetonitrile; Mobile phase B: 0.1% TFA in water; Flow rate, 1 mL/min; Run Time: 30 min Inj. vol. 20 μL; Detection: 210 nm; Dissolving solvent: Acetonitrile/water (50:50 v:v).

K. pneumoniae 1109 = test: Murine acute systemic infection model; details: Murine acute systemic infection vs. K. pneumoniae 1109; oral BID; survival day four post-infection; repeat experiments
S. pneumoniae 1095 [6] = test: Murine acute systemic infection model; details: Murine acute systemic infection vs. S. pneumoniae 1095; oral BID; survival day four post-infection; repeat experiments
S. pneumoniae 1095 [7] = test: Murine respiratory tract infection model; details: Murine respiratory tract infection vs. S. pneumoniae 1095; oral BID for two days from 18 h post-infection; survival day ten; repeat experiments
H. influenzae BLNAR = test: Gerbil otitis media model; details: Gerbil otitis media vs. H. influenzae BLNAR, oral TID for two days from 18 h post-infection, bacterial levels in middle ear fluid day four, repeat experiments
K. pneumoniae 6485 = test: Murine acute systemic infection model; details: Murine acute systemic infection vs. K. pneumoniae 6485; oral BID; survival day four post-infection; repeat experiments
[8] = system: porcine pancrelipase (PPE); test: Stability in the presence of porcine pancrelipase (PPE); format: in vitro ADME; details: ku-zyme Lot 1; 50 μM substrate, pH 7.4, 37° C.
[9] = humans; given orally as a mixture of two stereoisomers; Foulds et al.; cited from earlier work

Compound: C[C@@H](O)[C@H]1C(=O)N2C(C(=O)OCOC(=O)C(C)(C)C)=C(S[C@H]3CC[S@@+]([O-])C3)S[C@H]12 (racemic) [Compound B2, reference compound]
half-life at 50 µM ([1]; pH 7.4, ku-zyme Lot 1): 11.6 min
half-life at 50 µM ([1]; pH 7.4, ku-zyme lot 2): 19.6 min
HIJ Clint (avg) [2]: 0.09 mL/min
fraction absorbed ([3]; sulopenem equivalent dose 205 mg): 38.5%
fraction absorbed ([3]; sulopenem equivalent dose 409 mg): 33.5%
Km [4]: 40 µM

clearance of radioactivity, fold faster than pivalic acid [5]: 4.5 fold
Compound: CCC(CC)C(=O)O [2-ethylbutyric acid]
change in plasma carnitine (plasma carnitine): statistically insignificant changes in plasma carnitine

Compound: CCOC(C)(C)C(=O)OCOC(=O)C1=C(S[C@H]2CC[S@@+]([O-])C2)S[C@@H]2[C@@H]([C@@H](C)O)C(=O)N12 [Compound 2, (2-Ethoxy-2-methyl-1-oxopropoxy)methyl (5R,6S)-6-[(1R)-1-hydroxyethyl]-7-oxo-3-[[(1R,3S)-tetrahydro-1-oxido-3-thienyl]thio]-4-thia-1-azabicyclo[3.2.0]hept-2-ene-2-carboxylate]
half-life at 50 µM ([1]; pH 7.4, ku-zyme Lot 1): 19.1 min
solubility (Equilibrium solubility): 2900 µg/mL (≈ 5870 µM)
HIJ Clint (avg) [2]: 0.13 mL/min
PD50 (K. pneumoniae 1109): 12.5 mg/kg and 16.2 mg/kg
PD50 (S. pneumoniae 1095 [6]): 7.9 mg/kg and 6.3 mg/kg and 11.0 mg/kg
PD50 (S. pneumoniae 1095 [7]): 19.7 mg/kg and 38.5 mg/kg
Km [4]: 105 µM

Compound: C[C@@H](O)[C@H]1C(=O)N2C(C(=O)OCOC(=O)OC3CCC(C)(C)CC3)=C(S[C@H]3CC[S@@+]([O-])C3)S[C@H]12 [Compound A]
half-life at 50 µM ([1]; pH 7.4, ku-zyme Lot 1): 3.9 ± 1.1 min
half-life at 50 µM ([1]; pH 7.4, ku-zyme lot 2): 6.3 min
solubility (Equilibrium solubility): 136 µg/mL (≈ 255 µM)
HIJ Clint (avg) [2]: 0.38 mL/min
ED50 (H. influenzae BLNAR): 8.7 mg/kg
ED50 (H. influenzae BLNAR; Haemophilus influenzae, in Meriones unguiculatus, po): 6.9 mg/kg
PD50 (K. pneumoniae 1109): 10.1 mg/kg and 15.3 mg/kg
PD50 (K. pneumoniae 6485): 40.7 mg/kg
PD50 (S. pneumoniae 1095 [6]): 9.0 mg/kg and 15.3 mg/kg
PD50 (S. pneumoniae 1095 [7]): 17.8 mg/kg and 20.8 mg/kg
Km [4]: 300 µM

Compound: C[C@@H](O)[C@H]1C(=O)N2C(C(=O)OCOC(=O)C(C)(C)C)=C(S[C@H]3CC[S@@+]([O-])C3)S[C@H]12 [Compound B1, reference compound]
half-life at 50 µM ([1]; pH 7.4, ku-zyme lot 2): 22.5 min
solubility (Equilibrium solubility): 389 µg/mL (≈ 839 µM)
HIJ Clint (avg) [2]: 0.11 mL/min
PD50 (K. pneumoniae 6485): >100 mg/kg
Km [4]: 29 µM

half-life at 50 µM ([1]; pH 7.4, ku-zyme Lot 1): 21.1 min
Compound: CCC(CC)(CC)C(=O)OCOC(=O)C1=C(S[C@H]2CC[S@@+]([O-])C2)S[C@@H]2[C@@H]([C@@H](C)O)C(=O)N12 [Compound C]

half-life at 50 µM ([1]; pH 7.4, ku-zyme Lot 1): 14.4 min
Compound: CCCC(C)(C)C(=O)OCOC(=O)C1=C(S[C@H]2CC[S@@+]([O-])C2)S[C@@H]2[C@@H]([C@@H](C)O)C(=O)N12 [Compound I]

half-life at 50 µM ([1]; pH 7.4, ku-zyme Lot 1): 6.4 min
Compound: CC(C)CC(=O)OCOC(=O)C1=C(S[C@H]2CC[S@@+]([O-])C2)S[C@@H]2[C@@H]([C@@H](C)O)C(=O)N12 [E]

half-life at 50 µM ([1]; pH 7.4, ku-zyme Lot 1): 4.7 min
Compound: CC(C)C(=O)OCOC(=O)C1=C(S[C@H]2CC[S@@+]([O-])C2)S[C@@H]2[C@@H]([C@@H](C)O)C(=O)N12 [F]

half-life at 50 µM ([1]; pH 7.4, ku-zyme Lot 1): 21.2 min
HIJ Clint (avg) [2]: 0.18 mL/min
Km [4]: 390 µM
Compound: CC(=O)OCOC(=O)C1=C(S[C@H]2CC[S@@+]([O-])C2)S[C@@H]2[C@@H]([C@@H](C)O)C(=O)N12 [G]

half-life at 50 µM ([1]; pH 7.4, ku-zyme Lot 1): 6.8 min
Compound: CCC(C)C(=O)OCOC(=O)C1=C(S[C@H]2CC[S@@+]([O-])C2)S[C@@H]2[C@@H]([C@@H](C)O)C(=O)N12 (stereo partly shown) [H]

half-life at 50 µM ([1]; pH 7.4, ku-zyme Lot 1): 11 min
Compound: CCC(C)(C)C(=O)OCOC(=O)C1=C(S[C@H]2CC[S@@+]([O-])C2)S[C@@H]2[C@@H]([C@@H](C)O)C(=O)N12 [J]

half-life at 50 µM ([1]; pH 7.4, ku-zyme Lot 1): 14.5 min
Compound: CCCCC(C)(C)C(=O)OCOC(=O)C1=C(S[C@H]2CC[S@@+]([O-])C2)S[C@@H]2[C@@H]([C@@H](C)O)C(=O)N12 [K]

half-life at 50 µM ([1]; pH 7.4, ku-zyme Lot 1): 39.4 min
Compound: CCC(C)(CC)C(=O)OCOC(=O)C1=C(S[C@H]2CC[S@@+]([O-])C2)S[C@@H]2[C@@H]([C@@H](C)O)C(=O)N12 [M]

half-life at 50 µM ([1]; pH 7.4, ku-zyme Lot 1): 11.1 min
Compound: CC(C)C(C)(C)C(=O)OCOC(=O)C1=C(S[C@H]2CC[S@@+]([O-])C2)S[C@@H]2[C@@H]([C@@H](C)O)C(=O)N12 [N]

half-life at 50 µM ([1]; pH 7.4, ku-zyme Lot 1): 8.3 min
Compound: CCCC(CCC)C(=O)OCOC(=O)C1=C(S[C@H]2CC[S@@+]([O-])C2)S[C@@H]2[C@@H]([C@@H](C)O)C(=O)N12 [O]

PPE Half Life [8]: 4.2 min
Compound: CCC(C)C(=O)OCOC(=O)C1=C(S[C@H]2CC[S@@+]([O-])C2)S[C@@H]2[C@@H]([C@@H](C)O)C(=O)N12 (stereo partly shown) [P]

half-life at 50 µM ([1]; pH 7.4, ku-zyme Lot 1): 4.8 min
Compound: CCCC(C)C(=O)OCOC(=O)C1=C(S[C@H]2CC[S@@+]([O-])C2)S[C@@H]2[C@@H]([C@@H](C)O)C(=O)N12 (stereo partly shown) [Q]

half-life at 50 µM ([1]; pH 7.4, ku-zyme Lot 1): 5.3 min
Compound: CCC(C(=O)OCOC(=O)C1=C(S[C@H]2CC[S@@+]([O-])C2)S[C@@H]2[C@@H]([C@@H](C)O)C(=O)N12)C(C)C (stereo partly shown) [R]

half-life at 50 µM ([1]; pH 7.4, ku-zyme Lot 1): 6.3 min
Compound: C[C@@H](O)[C@H]1C(=O)N2C(C(=O)OCOC(=O)C(C)(C)C(C)(C)C)=C(S[C@H]3CC[S@@+]([O-])C3)S[C@H]12 [S]

half-life at 50 µM ([1]; pH 7.4, ku-zyme Lot 1): 7.7 min
Compound: CC(C)C(C(=O)OCOC(=O)C1=C(S[C@H]2CC[S@@+]([O-])C2)S[C@@H]2[C@@H]([C@@H](C)O)C(=O)N12)C(C)C [T]

half-life at 50 µM ([1]; pH 7.4, ku-zyme Lot 1): 6.4 min
Compound: CC(C)CC(CC(C)C)C(=O)OCOC(=O)C1=C(S[C@H]2CC[S@@+]([O-])C2)S[C@@H]2[C@@H]([C@@H](C)O)C(=O)N12 [U]

half-life at 50 µM ([1]; pH 7.4, ku-zyme Lot 1): 10.5 min
Compound: CC(C)CC(C)(C)C(=O)OCOC(=O)C1=C(S[C@H]2CC[S@@+]([O-])C2)S[C@@H]2[C@@H]([C@@H](C)O)C(=O)N12 [V]

half-life at 50 µM ([1]; pH 7.4, ku-zyme Lot 1): 7.6 min
Compound: C[C@@H](O)[C@H]1C(=O)N2C(C(=O)OCOC(=O)CC(C)(C)C)=C(S[C@H]3CC[S@@+]([O-])C3)S[C@H]12 [W]

half-life at 50 µM ([1]; pH 7.4, ku-zyme Lot 1): 4.7 min
Compound: CCC(=O)OCOC(=O)C1=C(S[C@H]2CC[S@@+]([O-])C2)S[C@@H]2[C@@H]([C@@H](C)O)C(=O)N12 [X]

half-life at 50 µM ([1]; pH 7.4, ku-zyme Lot 1): 8 min
Compound: C[C@@H](O)[C@H]1C(=O)N2C(C(=O)OCOC(=O)C(C(C)(C)C)C(C)(C)C)=C(S[C@H]3CC[S@@+]([O-])C3)S[C@H]12 [Y]

Compound: CC(O)C1C(=O)N2C(C(=O)OCOC(=O)C(C)(C)C)=C(SC3CC[S+]([O-])C3)SC12 (stereo not shown) [sulopenem POM ester]
oral bioavailability (in words) [9]: orally bioavailable in humans
